Results taken from US8822496B2, “Dosage regimens for HCV combination therapy” (priority 2009, dated 2014).
Structures can show the parent of a compound that is named as a salt. Where two headings read alike, the source gives them in different places.

Tests used:
HCV genotype-1 [1] = details: for Below Limit of Quantification at D 28 (number of patients) / Below Limit of Quantification at D 28 (percent of patients): less than 25 IU per ml of serum; for Virologic rebound during treatment (patients with rebound/patients in group) / Virologic rebound during treatment: first 28 days
Protocol: All patients were monitored for safety and tolerability of study drugs. The primary endpoint was a ≧2 log 10 reduction in HCV viral load (VL) from baseline at any time up to Day 28. Plasma HCV-RNA levels were measured using the Roche COBAS® TaqMan® assay (LLOQ 25 IU/mL). The treatment experienced patients in this study included P+R null responders and partial respoders. After Day 28, at the discretion of the investigator, patients could continue to receive standard of care treatment, i.e., P+R.

HCV NS3 protease = HCV NS3 protease inhibitor EC50 (background statement); assay type: cell-based
HCV genotype-1 [2] = test: Clinical study with treatment-naive patients: monotherapy 14 days, then triple combination with P+R 14 days; details: for VL rebound during treatment: first 14 days of monotherapy, all dose groups
Protocol: Plasma HCV-RNA levels were measured with Roche COBAS® TaqMan® assay (LLOQ 25 IU/m L). After Day 28, at the discretion of the investigator, patients could continue to receive standard of care treatment, i.e., P+R.

[3] = Trough plasma concentration of Compound (1) with or without two-fold first loading dose; assay type: in vivo, human; details: TE patients; for Mean steady state trough of Days 10-29 / Geometric mean trough plasma concentration: + P+R
Source text: Trough (pre-dose) plasma samples were collected on Days 2, 3, 4, 6, 10, 14, 21, 28 and 29 following the initiation of combination treatment on Day 1.

[4] = 240 mg QD SGC with first 480 mg loading dose, Day 3
[5] = 240 mg QD SGC with first 480 mg loading dose, Day 4
[6] = 240 mg QD SGC with first 480 mg loading dose, Day 6
[7] = 240 mg QD solution (PiB) without loading dose, Day 3
[8] = 240 mg QD solution (PiB) without loading dose, Day 4
[9] = 240 mg QD solution (PiB) without loading dose, Day 6

C=C[C@@H]1C[C@]1(NC(=O)[C@@H]1C[C@H](Oc2cc(-c3csc(NC(=O)C(C)C)n3)nc3c(Br)c(OC)ccc23)CN1C(=O)[C@@H](NC(=O)OC1CCCC1)C(C)(C)C)C(=O)O [Compound (1) sodium salt]
Maximal decline D 1-14 (HCV genotype-1 [1]; 48 mg QD, N = 6, + P+R): 4.4 ×log10 | Mean Decline at D 14 (HCV genotype-1 [1]; 48 mg QD, N = 6, + P+R): […] | Mean decline at D 6 (HCV genotype-1 [1]; 48 mg QD, N = 6, + P+R): […] | Below Limit of Quantification at D 28 (number of patients) (HCV genotype-1 [1]; 48 mg QD, N = 6, + P+R): […] | Below Limit of Quantification at D 28 (percent of patients) (HCV genotype-1 [1]; 48 mg QD, N = 6, + P+R): […] | Median (range) maximal decline in VL during 28 day combination therapy (HCV genotype-1 [1]; 48 mg qd + P+R): […] | Virologic rebound during treatment (patients with rebound/patients in group) (HCV genotype-1 [1]; 48 mg qd + P+R): […] | Maximal decline D 1-14 (HCV genotype-1 [1]; 120 mg QD, N = 7, + P+R): 4.5 ×log10 | Mean Decline at D 14 (HCV genotype-1 [1]; 120 mg QD, N = 7, + P+R): 4.3 ×log10 | Mean decline at D 6 (HCV genotype-1 [1]; 120 mg QD, N = 7, + P+R): […] | Below Limit of Quantification at D 28 (number of patients) (HCV genotype-1 [1]; 120 mg QD, N = 7, + P+R): […] | Median (range) maximal decline in VL during 28 day combination therapy (HCV genotype-1 [1]; 120 mg qd + P+R): […] | Virologic rebound during treatment (patients with rebound/patients in group) (HCV genotype-1 [1]; 120 mg qd + P+R): […] | Maximal decline D 1-14 (HCV genotype-1 [1]; 240 mg QD, N = 6, + P+R): […] | Mean Decline at D 14 (HCV genotype-1 [1]; 240 mg QD, N = 6, + P+R): […] | Mean decline at D 6 (HCV genotype-1 [1]; 240 mg QD, N = 6, + P+R): […] | Below Limit of Quantification at D 28 (number of patients) (HCV genotype-1 [1]; 240 mg QD, N = 6, + P+R): […] | Below Limit of Quantification at D 28 (percent of patients) (HCV genotype-1 [1]; 240 mg QD, N = 6, + P+R): […] | Median (range) maximal decline in VL during 28 day combination therapy (HCV genotype-1 [1]; 240 mg qd + P+R): […] | Virologic rebound during treatment (HCV genotype-1 [1]; 240 mg qd + P+R, listed as Compound (1) (sodium salt)): no rebound | Serious or severe adverse events (HCV genotype-1 [1]; 48-240 mg qd + P+R, 28 days): no serious or severe adverse events | Discontinuation of treatment due to an AE (HCV genotype-1 [1]; AE: anxiety): One subject discontinued treatment | VL decline with triple combination therapy (HCV genotype-1 [1]; human, in vivo): […] | VL plateau by Day 28 (HCV genotype-1 [1]; one patient of the 120 mg dose group, R155K mutant, no rebound): […] | Tolerability (HCV genotype-1 [1]; treatment-experienced pts, 48-240 mg qd + P+R, 28 days): well tolerated | EC50 (HCV NS3 protease): […] | Serious AE (HCV genotype-1 [2]; 20 mg dose cohort, 6 days after initiating P+R): One serious AE, asthenia | Median (range) maximal reduction in VL during 14 day monotherapy (HCV genotype-1 [2]; 20 mg qd): […] | Median (range) maximal reduction in VL during 14 day monotherapy (HCV genotype-1 [2]; 48 mg qd): […] | Median (range) maximal reduction in VL during 14 day monotherapy (HCV genotype-1 [2]; 120 mg qd): […] | Median (range) maximal reduction in VL during 14 day monotherapy (HCV genotype-1 [2]; 240 mg qd): […] | VL decline during the monotherapy period (HCV genotype-1 [2]; all pts on drug except 1 pt in the 20 mg cohort): […] | Time of maximal VL decline after starting (HCV genotype-1 [2]; all pts, typical): […] | Discontinuation of treatment due to adverse events (HCV genotype-1 [2]; during monotherapy): No pts discontinued treatment | VL rebound during treatment (HCV genotype-1 [2]): a majority of patients | VL rebound during treatment (HCV genotype-1 [2]; listed as Compound (1) (sodium salt)): a majority of the patients | Tolerability (HCV genotype-1 [2]; treatment-naive pts, 20-240 mg qd, monotherapy 14 days then + P+R 14 days): well tolerated

C=C[C@@H]1C[C@]1(NC(=O)[C@@H]1C[C@H](Oc2cc(-c3csc(NC(=O)C(C)C)n3)nc3c(Br)c(OC)ccc23)CN1C(=O)[C@@H](NC(=O)OC1CCCC1)C(C)(C)C)C(=O)O [Compound (1)]
Mean steady state trough of Days 10-29 ([3]; 240 mg QD SGC with first 480 mg loading dose): 5,774 | Geometric mean trough plasma concentration [3, 4]: […] | Geometric mean trough plasma concentration [3, 5]: 5,640 | Geometric mean trough plasma concentration [3, 6]: 7,060 | Geometric mean trough plasma concentration ([3]; 240 mg QD SGC with first 480 mg loading dose, Day 10): 6,580 | Geometric mean trough plasma concentration ([3]; 240 mg QD SGC with first 480 mg loading dose, Day 14): 5,590 | Geometric mean trough plasma concentration ([3]; 240 mg QD SGC with first 480 mg loading dose, Day 21): 5,410 | Geometric mean trough plasma concentration ([3]; 240 mg QD SGC with first 480 mg loading dose, Day 28): 5,960 | Geometric mean trough plasma concentration ([3]; 240 mg QD SGC with first 480 mg loading dose, Day 29): […] | % of mean steady state trough of Days 10-29 ([3]; 240 mg QD SGC with first 480 mg loading dose, Day 2): […] | % of mean steady state trough of Days 10-29 [3, 4]: 81.2% | % of mean steady state trough of Days 10-29 [3, 5]: 97.7% | % of mean steady state trough of Days 10-29 [3, 6]: 122.3% | Geometric mean trough plasma concentration ([3]; 240 mg QD soft gelatin capsules (SGC) with a first 480 mg loading dose, Day 2): 3,470 | Geometric mean trough plasma concentration ([3]; 240 mg QD solution (PiB) without a first 480 mg loading dose, Day 2): 710 | Mean steady state trough of Days 10-29 ([3]; 240 mg QD solution (PiB) without loading dose): […] | Geometric mean trough plasma concentration [3, 7]: […] | Geometric mean trough plasma concentration [3, 8]: 2,420 | Geometric mean trough plasma concentration [3, 9]: 2,950 | Geometric mean trough plasma concentration ([3]; 240 mg QD solution (PiB) without loading dose, Day 10): 2,930 | Geometric mean trough plasma concentration ([3]; 240 mg QD solution (PiB) without loading dose, Day 14): 2,850 | Geometric mean trough plasma concentration ([3]; 240 mg QD solution (PiB) without loading dose, Day 21): […] | Geometric mean trough plasma concentration ([3]; 240 mg QD solution (PiB) without loading dose, Day 28): […] | Geometric mean trough plasma concentration ([3]; 240 mg QD solution (PiB) without loading dose, Day 29): […] | % of mean steady state trough of Days 10-29 ([3]; 240 mg QD solution (PiB) without loading dose, Day 2): […] | % of mean steady state trough of Days 10-29 [3, 7]: 49.2% | % of mean steady state trough of Days 10-29 [3, 8]: […] | % of mean steady state trough of Days 10-29 [3, 9]: 87.4% | Pts with VL <25 IU/mL at Day 28 (HCV genotype-1 [1]; 240 mg qd + P+R): […] | Virologic rebound during treatment (HCV genotype-1 [1]; 240 mg qd + P+R): No rebound | Decline in VL from baseline on Day 28 (HCV genotype-1 [1]; sixth pt of the 240 mg qd cohort): […]
